# Experimental data taken from US7265154B2, “Valproic acid and derivatives thereof as histone deacetylase inhibitors” (Georg-Speyter-Haus Chemotherapeutisches Forschungsinstitut, priority 2000, dated 2007).
# Several values for one entry are separate records, joined by “and”; a condition that tells them apart may be missing. Equal entries are not always repeated. Square brackets hold non-standard residues; d marks the D form. Peptide text beside a SMILES is read from it. Aoe = N[C@@H](CCCCCC(=O)[C@@H]1CO1)C(=O)O
# Key:
# F9 teratocarcinoma cells [1] = test: Nuclear AP-2 protein as differentiation marker, Western blot; type: cell-based; conditions: 48 h; VPA 1 mM, sodium butyrate 1 mM, trichostatin A 30 nM
# Source text: Nuclear extracts were separated on a 9% SDS polyacrylamide gel. AP-2 protein was detected by Western blot analysis using a rabbit polyclonal antibody (Santa Cruz, Cat.-No.: SC-184) at a dilution of 1/1000 in Tris buffered saline containing 3% non-fat dry milk and 0.05% Tween 20.
# [2] = tested on: histones H3 and H4 in F9 cells; test: Accumulation of hyperacetylated histones H3 and H4, Western blot; type: cell-based; conditions: whole cell extracts, VPA in the range of therapeutic serum levels, 16 h
# Source text: Histone deacetylase inhibitors induce the accumulation of N-terminally hyperacetylated histones H3 and H4. These acetylated histones can be detected by Western blot analysis of whole cell extracts or of histone preparations from histone deacetylase inhibitor-treated cells using antibodies specific for the acetylated N-terminal lysine residues of histones H3 and H4.
# These acetylated histones can be detected by Western blot analysis in cell extracts of appropriately treated cells.
# (A) For the time course analysis F9 cells were seeded into 6-well culture dishes 30 h before the intended time point of analysis. […] DNA of collected samples was sheared by sonication and samples were separated on a 15% denaturing polyacrylamide gel. Acetylated histones H3 and histone H4 were detected by Western blot analysis using commercially available antibodies (Upstate Biotechnology) specific for the acetylated forms of histones (Ac-H3, Cat-Nr.: 06-599; Ac-H4, Cat-Nr.: 06-598). Equal loading of the lanes was confirmed by staining a part of the polyacrylamide gel by Coomassie blue.
# Whole cell extracts were prepared 16 h after treatment as described above. Analysis for acetylated histones H3 and H4 was performed as described in (A).
# [3] = biological target: T1, PPARδ ligand binding domain (glucocorticoid receptor hybrid) (UniProt P04150+P35396); test: PPARδ-glucocorticoid receptor hybrid reporter gene assay (alkaline phosphatase) in CHO cells; type: cell-based; conditions: 40 h, cPGI 5 μM with VPA 1 or 2 mM or TSA 300 nM
# T1 construct: expressed in transfected cells; host or cells: CHO subclone with MMTV-LTR alkaline phosphatase reporter
# T1 sequence (P04150+P35396 with tags, fused parts or gaps): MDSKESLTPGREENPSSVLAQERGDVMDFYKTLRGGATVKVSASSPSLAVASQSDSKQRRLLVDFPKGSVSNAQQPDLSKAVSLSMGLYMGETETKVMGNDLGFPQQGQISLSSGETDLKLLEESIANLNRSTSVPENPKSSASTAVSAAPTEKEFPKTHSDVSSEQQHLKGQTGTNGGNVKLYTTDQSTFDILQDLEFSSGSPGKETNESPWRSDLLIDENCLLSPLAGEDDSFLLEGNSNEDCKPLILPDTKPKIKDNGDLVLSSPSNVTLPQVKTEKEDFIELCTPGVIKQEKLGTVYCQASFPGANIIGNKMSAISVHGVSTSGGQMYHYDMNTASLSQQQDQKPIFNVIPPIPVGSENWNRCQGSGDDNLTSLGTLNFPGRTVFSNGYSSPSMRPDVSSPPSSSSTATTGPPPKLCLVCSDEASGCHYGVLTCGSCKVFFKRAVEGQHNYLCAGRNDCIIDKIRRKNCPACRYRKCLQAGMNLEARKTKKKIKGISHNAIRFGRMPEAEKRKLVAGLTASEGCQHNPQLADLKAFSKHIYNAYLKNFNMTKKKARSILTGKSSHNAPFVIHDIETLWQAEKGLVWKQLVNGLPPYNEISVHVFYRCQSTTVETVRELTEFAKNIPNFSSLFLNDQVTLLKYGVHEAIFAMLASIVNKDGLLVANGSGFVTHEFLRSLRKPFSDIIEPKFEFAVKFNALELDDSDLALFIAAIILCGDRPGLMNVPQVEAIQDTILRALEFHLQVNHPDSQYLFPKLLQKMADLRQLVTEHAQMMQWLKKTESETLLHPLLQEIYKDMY
# Source text: A reporter gene cell line for activation of the PPARδ ligand binding domain was constructed in CHO cells. […] Activation of the PPARδ ligand binding domain in these cells induces expression of the alkaline phosphatase reporter gene which is detectable by an enzymatic assay from the cell culture supernatant. […] Reporter gene activity was monitored by an enzymatic assay (alkaline phosphatase).
# [4] = tested on: Gal4 fusion proteins of TR, PPARδ, RAR, N—CoR and AML/ETO in Hela cells; test: Gal4 fusion protein transcriptional repression assay, UAS TK luciferase reporter; type: cell-based; conditions: 24 h, VPA 1 mM, Trapoxin 10 nM, TSA 100 nM
# Source text: The transcriptional assay for repressor activity exploits activation and derepression of a Gal4-dependent reporter gene. This assay can be performed either by transient transfection of mammalian cell lines (e.g. HeLa, 293T, CV-1) or with specifically constructed permanent cell lines. Transcription factors such as thyroid hormone receptor, PPARδ, retinoic acid receptor, N—COR and AML/ETO repress transcription when they bind to a promoter containing UAS elements as fusion proteins with the heterologous DNA-binding domain of the yeast Gal4 protein. […] HDAC inhibitors induce relief of this repression which can be detected as an increase in reporter gene activity (e.g. by luciferase assay).
# The transcription factors thyroid hormone receptor (TR), peroxisome proliferator activated receptor □ (PPARδ), retinoic acid receptor (RAR), the corepressor N—CoR and the AML/ETO fusion protein repress transcription when they bind to a promoter containing UAS sites (Gal4 response element) as fusion proteins with the heterologous DNA binding domain of the yeast Gal4 protein. […] Transcriptional repression is measured as luciferase activity relative to the baseline of cells transfected with an expression plasmid for the Gal4 DNA binding domain alone (FIG. 2).
# [5] = tested on: human cancer cell cultures; test: Reduction of total cellular biomass (Sulforhodamine B); type: cell-based; conditions: 48 hours VPA
# Experimental: Background OD of complete medium with 5% FBS fixed and stained as described above was also determined in 12 separate wells.
# [6] = tested on: breast, ovarian, squamous cell and renal carcinoma cells; test: Cell viability assay (MTT); type: cell-based; conditions: 1 or 3 mM, 40 h or 70 h
# Experimental: Human MDA-MB468, MDA-MB453 and SKBR3 breast carcinoma cells, A431 squamous cell carcinoma cells, and SKOV3 ovarian carcinoma cells were maintained in Dulbecco's modified Eagle's medium (DMEM, BioWhittaker, Verviers, Belgium) supplemented with 10% heat inactivated fetal bovine serum (FBS), 2 mM L-glutamine, 100 units/ml penicillin, and 100 μg/ml streptomycin. Human MCF7 breast carcinoma cells were grown in RPMI medium supplemented as described above.
# Renal cell carcinoma (Renca) cells stably transfected with plasmid pZeoSV2/lacZ encoding E. coli β-galactosidase (Renca-lacZ cells) (Maurer-Gebhard et al., Cancer Res. 58: 2661-2666, 1998) were grown in RPMI-1640 medium supplemented with 8% FBS, 2 mM L-glutamine, 100 U/ml penicillin, 100 μg/ml streptomycin, 0.25 mg/ml Zeocin. […]
# Tumor cells were seeded in 96 well plates at a density of 1×10^4 cells/well in normal growth medium. […] After solubilization of the formazan product, the absorption at 590 nm was determined in a microplate reader (Dynatech, Denkendorf, Germany) and the relative amount of viable cells in comparison to cells grown without the addition of valproic acid was calculated.
# F9 teratocarcinoma cells [7] = test: 3H-thymidine incorporation in F9 cells; type: cell-based; conditions: 1 mM VPA, 36 h, then 12 h 3H-thymidine
# Source text: (§1) Cell differentiation is associated with cell cycle arrest, morphological alterations and the appearance of expression of markers of the differentiated phenotype. Morphological alterations where determined by microscopic evaluation of F9 and HT-29 cells. One parameter of differentiation, the cell cycle arrest, was shown in F9 teratocacrcinoma, estrogen independent MT-450 breast cancer and HT-29 colonic carcinoma cells by means of the reduced incorporation of ^3H-thymidine into cultured cells. […] 37 kBq of ^3H-thymidine were added for additional 12 h of culture. MT-450 cells were cultured for 72 h prior to a 1 h ^3H-thymidine labelling period. Incorporation of ^3H-thymidine into DNA was determined by automatic cell harvesting and liquid scintillation counting. […] The dose-response for the reduction of thymidine incorporation into HT-29 cells (FIG. 5A) was determined by the same experimental procedure. In addition, the induction of a cell differentiation marker was shown in F9 teratocarcinoma cells (FIG. 5B).
# [8] = tested on: SW-1116 colon cancer cells; test: Morphological evaluation for cell death, SW-1116; type: cell-based, human; conditions: 1 mM VPA
# Experimental: (§2) The reduction in biomass could indicate cell loss due to cell death and/or differentiation associated cell cycle arrest. Quantitative parameters, e.g. the loss of biomass, was determined in 30 human cancer cell lines (FIG. 8 e) and twelve examples of dose-response curves are shown, e.g. BT-549 breast cancer cells (1), estrogen dependent ZR-75 breast cancer cells (2), DMS-114 small cell lung cancer cells (3), NCl—H226 non-small cell lung cancer cells (4), SK-MEL-28 skin cancer cells (5), OVCAR-3 ovarian cancer cells (6), HUP-T3 pancreatic cancer cells (7), DU-145 prostate cancer cells (8), DETROIT-562 head and neck cancer cells, LS-174 colon cancer cells (10), A-172 brain cancer cells (11) and HL-60 leukemia cells (12) (FIGS. 8a-d). All cells were evaluated for morphological signs of cell death and/or differentiation.
# [9] = tested on: HT-29 colonic carcinoma cells; test: 3H-thymidine incorporation in HT-29 cells; type: cell-based; conditions: 1 mM VPA, 36 h, then 12 h 3H-thymidine
# Source text: as §1
# U87MG cells = test: Morphological evaluation for differentiation, U87MG; type: cell-based, human; conditions: VPA treatment
# Experimental: as §2
# [10] = tested on: DU-145 prostate cancer cells; test: Morphological evaluation for differentiation, DU-145; type: cell-based, human; conditions: VPA treatment
# Experimental: as §2
# PC-3 cells = test: Morphological evaluation for differentiation, PC-3; type: cell-based, human; conditions: VPA treatment
# Experimental: as §2
# [11] = tested on: MT-450 breast cancer cells; test: 3H-thymidine incorporation in MT-450 cells; type: cell-based; conditions: 1 mM VPA, 72 h, then 1 h 3H-thymidine
# Source text: as §1
structure (smiles),measurement,setting,value
"CC(/C=C/C(=O)NO)=C\[C@@H](C)C(=O)c1ccc(N(C)C)cc1 [TSA, trichostatin A]",Appearance of nuclear AP-2 protein,F9 teratocarcinoma cells [1],induce nuclear AP-2 protein
same,Accumulation of hyperacetylated histones H3 and H4,[2],induce the accumulation of hyperacetylated histones H3 and H4
same,Activation of the reporter gene together with the PPARδ ligand cPGI,[3],synergistic activation
same,Relief of transcriptional repression (increase in reporter gene activity),[4],relief of repression
"O=C1N[C@@H](Cc2ccccc2)C(=O)N2CCC[C@@H]2C(=O)N[C@@H](CCCCCC(=O)[C@@H]2CO2)C(=O)N[C@H]1Cc1ccccc1 [Trapoxin, trapoxin] (cyclo(FF[dP][Aoe]))",Relief of transcriptional repression (increase in reporter gene activity),[4],relief of repression
"CCCC(CCC)C(=O)O [VPA, 2-n-propylpentanoic acid]",Appearance of nuclear AP-2 protein,F9 teratocarcinoma cells [1],induce nuclear AP-2 protein
same,Total cellular biomass,[5],reduces the total cellular biomass
same,Viability of tumor cells (MTT),[6],reduces the viability
same,Reduction of the rate of thymidine incorporation,F9 teratocarcinoma cells [7],48±5% and 48%
same,Cell death by morphological signs,[8],most cells were dying
same,Reduction of the rate of thymidine incorporation,[9],52±8%
same,Accumulation of hyperacetylated histones H3 and H4,[2],induce hyperactylation of histones H3 and H4
same,Change of cell morphology,U87MG cells,increase in length and develop spider-like filamentous extensions
same,Change of cell morphology,[10],change their normal round morphology to a long fibroblast-like shape
same,Change of cell morphology,PC-3 cells,change their normal round morphology to a long fibroblast-like shape
same,Reduction of the rate of thymidine incorporation,[11],63±8%
CCCC(=O)[O-].[Na+] [sodium butyrate],Appearance of nuclear AP-2 protein,F9 teratocarcinoma cells [1],weak
same,Accumulation of hyperacetylated histones H3 and H4,[2],induce the accumulation of hyperacetylated histones H3 and H4
